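Growth conditions: 96-well plates. Treatment: test compound, 48 hours, 5 concentrations. Analysis: linear interpolation between bracketing concentrations; unreached endpoints set to highest concentration. Here, GI50 denotes the concentration required for 50% inhibition of growth.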 The source made the active and inactive calls. Cut-off read from the data, not from the text of the source: active = GI50 up to about 1.1 µM and inactive = higher. Where only a bound is given, the exact number is not on record here.

The values below come from ChEMBL document CHEMBL1201862, “PubChem BioAssay data set” (2004).

Test systems include 786-0; ACHN; CAKI-1; HCC 2998; HOP-62; IGROV-1; MDA-N; MOLT-4; RPMI-8226; RXF 393; SF-268; SF-539; SK-MEL-28; SN12C; SR; SW-620; TK-10; UACC-257; UACC-62; HOP-92.
Common to all, as to experiment: NCI tumour cell line growth inhibition, 48 h

Take `COC(=O)c1c(C(=O)OC)c2ccccn2c1-c1cc(C)cc2c1C(=O)C=CC2=O`: the GI50 in the experiment on 786-0 is 5.48 µM (inactive); with ACHN it was 12.6 µM (inactive); in the experiment with CAKI-1, 5.08 µM (inactive); in the experiment on HCC 2998 it was 13.9 µM (inactive); in the experiment with HOP-62, 15.7 µM (inactive); with IGROV-1 it was 12.8 µM (inactive). The GI50 in the experiment on MDA-N is 10.5 µM (inactive); in the experiment with MOLT-4, 1.38 µM (inactive); in the experiment with RPMI-8226, 4.11 µM (inactive); in the experiment on RXF 393 it was 14.1 µM (inactive); with SF-268, 13.9 µM (inactive); in the experiment on SF-539, 11 µM (inactive). The GI50 in the experiment with SK-MEL-28 is 12.9 µM (inactive); with SN12C, 12.7 µM (inactive); in the experiment with SR, 3.93 µM (inactive); with SW-620, 2.89 µM (inactive); in the experiment with TK-10, 14.1 µM (inactive); in the experiment with UACC-257 it was 3.43 µM (inactive). In addition, the GI50 in the experiment on UACC-62 was 11.7 µM (inactive).

For `O=P1(c2ccccc2)c2ccccc2CCc2ccccc21`, the GI50 with 786-0 is > 100 µM (inactive); with CAKI-1 it was 34.2 µM (inactive); with HCC 2998 it was > 100 µM (inactive); with HOP-62 it was > 100 µM (inactive); in the experiment on HOP-92 it was 35.6 µM (inactive); in the experiment with IGROV-1, > 100 µM (inactive). Moreover, the GI50 with MDA-N is 38.7 µM (inactive); in the experiment on MOLT-4, 33.6 µM (inactive); with RPMI-8226, 50.6 µM (inactive); in the experiment on RXF 393 it was 44.4 µM (inactive); in the experiment on SF-268 it was 95.9 µM (inactive); in the experiment on SF-539, > 100 µM (inactive). The GI50 in the experiment on SK-MEL-28 was > 100 µM (inactive); in the experiment with SN12C it was 81.1 µM (inactive); with SW-620 it was > 100 µM (inactive); in the experiment on TK-10, > 100 µM (inactive); in the experiment on UACC-257 it was > 100 µM (inactive); in the experiment with UACC-62, 78.7 µM (inactive).

With `CCc1ccc2oc(-c3cc(O)c(-c4nc5cc(CC)ccc5o4)cc3O)nc2c1`, the GI50 in the experiment with 786-0, in the experiment on ACHN, with HCC 2998, in the experiment on HOP-62, in the experiment on HOP-92 and with IGROV-1 was > 100 µM (inactive) in each case. The GI50 in the experiment with MDA-N, with MOLT-4, with RPMI-8226, in the experiment with SF-268, in the experiment on SF-539 and in the experiment on SK-MEL-28 was > 100 µM (inactive) throughout. The GI50 in the experiment with SN12C, in the experiment with SR, in the experiment with SW-620, in the experiment with TK-10 and with UACC-62 was > 100 µM (inactive) each time.

Regarding `O=C(O)CCN1CCN(CCC(=O)O)CCN(CCC(=O)O)CC1`, the GI50 with 786-0 is 79.6 µM (inactive); in the experiment with ACHN it was > 100 µM (inactive); with CAKI-1, > 100 µM (inactive); in the experiment on HCC 2998 it was > 100 µM (inactive); with HOP-62 it was > 100 µM (inactive); with HOP-92, > 100 µM (inactive). The GI50 is > 100 µM (inactive) with IGROV-1; > 100 µM (inactive) with MDA-N; > 100 µM (inactive) in the experiment with MOLT-4; 83.4 µM (inactive) in the experiment with RPMI-8226; > 100 µM (inactive) with SF-539; > 100 µM (inactive) in the experiment on SK-MEL-28. Further, the GI50 with SN12C was > 100 µM (inactive); with SR, 44.6 µM (inactive); in the experiment on SW-620 it was 44.4 µM (inactive); in the experiment with TK-10, > 100 µM (inactive); with UACC-257, > 100 µM (inactive); in the experiment on UACC-62 it was > 100 µM (inactive).

Turning to `COc1ccc(/C=C2\CC3C4CC=C5C[C@@H](N6CCCC6)CC[C@]5(C)C4CC[C@]3(C)[C@H]2O)cc1OC` (some centres undefined), the GI50 was 3.77 µM (inactive) in the experiment with 786-0; 8.85 µM (inactive) in the experiment on ACHN; 8.65 µM (inactive) in the experiment with CAKI-1; 5.52 µM (inactive) in the experiment with HCC 2998; 5.48 µM (inactive) in the experiment with HOP-62; 10.7 µM (inactive) in the experiment with HOP-92. In addition, the GI50 is 10.7 µM (inactive) with IGROV-1; 7.55 µM (inactive) in the experiment on MDA-N; 8.39 µM (inactive) in the experiment on MOLT-4; 7.52 µM (inactive) in the experiment on RPMI-8226; 8.77 µM (inactive) in the experiment with RXF 393; 10.4 µM (inactive) with SF-268. Further, the GI50 in the experiment on SF-539 is 7.06 µM (inactive); in the experiment on SK-MEL-28, 8.51 µM (inactive); with SN12C, 10.2 µM (inactive); in the experiment with SW-620, 15.8 µM (inactive); in the experiment with TK-10 it was 10.8 µM (inactive); in the experiment on UACC-257, 8.13 µM (inactive). Besides, the GI50 in the experiment on UACC-62 was 8.97 µM (inactive).

Regarding `Cc1c(C#N)c(=N)oc2ccccc12`, the GI50 with 786-0 is > 100 µM (inactive); in the experiment on ACHN, > 100 µM (inactive); with CAKI-1, > 100 µM (inactive); in the experiment on HCC 2998, > 100 µM (inactive); with HOP-62 it was 88.9 µM (inactive); with HOP-92, > 100 µM (inactive). Further, the GI50 in the experiment with IGROV-1, in the experiment on MDA-N, in the experiment with MOLT-4, in the experiment with RPMI-8226, in the experiment with RXF 393 and in the experiment with SF-268 was > 100 µM (inactive) in each case. For the same compound, the GI50 in the experiment on SF-539, with SK-MEL-28, with SN12C, with SW-620, in the experiment with TK-10 and in the experiment with UACC-257 was > 100 µM (inactive) throughout. The GI50 with UACC-62 is > 100 µM (inactive).

For `Cc1cccc(N2CCN(S(=O)(=O)c3ccc(Cl)cc3)C2=N)c1C`, the GI50 with 786-0 was > 100 µM (inactive); in the experiment on ACHN, > 100 µM (inactive); in the experiment with CAKI-1, > 100 µM (inactive); in the experiment with IGROV-1, 25.1 µM (inactive); in the experiment with MDA-N it was > 100 µM (inactive); with MOLT-4, 35 µM (inactive). The GI50 was > 100 µM (inactive) in the experiment on RPMI-8226; > 100 µM (inactive) in the experiment with RXF 393; > 100 µM (inactive) in the experiment on SF-268; > 100 µM (inactive) in the experiment with SF-539; 38.6 µM (inactive) in the experiment with SK-MEL-28; > 100 µM (inactive) with SN12C. Further, the GI50 in the experiment with SR is 18.1 µM (inactive); in the experiment with SW-620, > 100 µM (inactive); in the experiment with TK-10, > 100 µM (inactive); with UACC-257 it was > 100 µM (inactive); in the experiment with UACC-62, 38.4 µM (inactive).

`c1ccc(-c2cc(-c3ccccc3)nc(-c3ccncc3)c2)cc1`: the GI50 in the experiment on 786-0 was 18 µM (inactive); in the experiment on ACHN, 70.8 µM (inactive); in the experiment on CAKI-1 it was > 100 µM (inactive); with HCC 2998 it was > 100 µM (inactive); in the experiment with HOP-62, 16.1 µM (inactive); with IGROV-1, 25.9 µM (inactive). Also, the GI50 in the experiment on MDA-N was > 100 µM (inactive); in the experiment with MOLT-4, > 100 µM (inactive); with RPMI-8226 it was > 100 µM (inactive); in the experiment with RXF 393, 44.6 µM (inactive); in the experiment with SF-268 it was > 100 µM (inactive); in the experiment with SK-MEL-28, > 100 µM (inactive). Further, the GI50 is > 100 µM (inactive) in the experiment with SN12C; > 100 µM (inactive) in the experiment with SR; > 100 µM (inactive) with SW-620; 40.4 µM (inactive) with TK-10; 99.8 µM (inactive) in the experiment on UACC-257; > 100 µM (inactive) with UACC-62.

In the case of `CC(C)(C)C(=O)Nc1c(C=O)ccc2[nH]cnc12`, the GI50 in the experiment with 786-0 was > 100 µM (inactive); in the experiment with ACHN, > 100 µM (inactive); with CAKI-1, 75.7 µM (inactive); in the experiment with HCC 2998, > 100 µM (inactive); with HOP-62, 61.8 µM (inactive); in the experiment with HOP-92 it was > 100 µM (inactive). The GI50 with IGROV-1 was > 100 µM (inactive); in the experiment on MDA-N it was > 100 µM (inactive); in the experiment with MOLT-4 it was 30.5 µM (inactive); in the experiment with RPMI-8226, 89.9 µM (inactive); in the experiment on RXF 393, > 100 µM (inactive); in the experiment with SF-268, > 100 µM (inactive). The GI50 with SF-539 was > 100 µM (inactive); in the experiment with SK-MEL-28, > 100 µM (inactive); in the experiment on SN12C, > 100 µM (inactive); in the experiment on SW-620, > 100 µM (inactive); in the experiment on TK-10, > 100 µM (inactive); in the experiment with UACC-257, 91.4 µM (inactive).

Consider `CCOC(=O)/C=C(/C(=O)OCC)n1cc(C)c(=O)n(Cc2cnnn2CCCCOC(C)=O)c1=O`, for which the GI50 in the experiment with 786-0 is 15.6 µM (inactive); in the experiment with ACHN it was 11.2 µM (inactive); in the experiment on CAKI-1 it was 5.79 µM (inactive); in the experiment on HCC 2998, > 10 µM (inactive); in the experiment with HOP-62, > 100 µM (inactive); with HOP-92 it was 0.0906 µM (active). Further, the GI50 is 19 µM (inactive) in the experiment on IGROV-1; 55.3 µM (inactive) in the experiment on MDA-N; 18.2 µM (inactive) with MOLT-4; 17.1 µM (inactive) in the experiment on RPMI-8226; 33.3 µM (inactive) in the experiment on RXF 393; 36.6 µM (inactive) with SF-268. Besides, the GI50 is 15.1 µM (inactive) in the experiment on SF-539; 25.2 µM (inactive) in the experiment on SK-MEL-28; 45.2 µM (inactive) with SN12C; 5.55 µM (inactive) with SW-620; 12.6 µM (inactive) with TK-10; 26.3 µM (inactive) in the experiment on UACC-257. For the same compound, the GI50 with UACC-62 is 19 µM (inactive).

`CC(=O)O[C@H]1C(=O)[C@@]2(C)C(C(OC(=O)c3ccccc3)[C@]3(O)CC(OC(=O)C(O)C(NC(=O)c4cccc(Cl)c4)c4ccccc4)C(C)=C1C3(C)C)[C@]1(OC(C)=O)CO[C@@H]1C[C@@H]2O` (some centres undefined): the GI50 in the experiment on 786-0 was 0.728 µM (active); with ACHN, 1.82 µM (inactive); in the experiment with CAKI-1, 6.64 µM (inactive); in the experiment with HCC 2998, 0.0664 µM (active); in the experiment on HOP-62, 0.518 µM (active); in the experiment on HOP-92, > 10 µM (inactive). For the same compound, the GI50 in the experiment on IGROV-1 was 0.624 µM (active); in the experiment on MDA-N, 0.0914 µM (active); in the experiment with MOLT-4, 1.01 µM (active); in the experiment on RPMI-8226, 0.405 µM (active); in the experiment with SF-268 it was 0.268 µM (active); with SF-539 it was 0.353 µM (active). The GI50 in the experiment on SN12C is 0.628 µM (active); in the experiment on SR it was 0.218 µM (active); in the experiment on SW-620 it was 0.838 µM (active); in the experiment with TK-10, 2.51 µM (inactive); in the experiment with UACC-257, 2.09 µM (inactive).
